Patent publication US9040501B2, “Compositions and methods for treating cancer” (Eisai Inc., priority 2009, dated 2015)
Where two headings read alike, the source gives them in different places.

Columns and labels:
[1] = test system: A2780 human ovarian cancer xenograft; assay: In vivo efficacy study in A2780 human ovarian cancer xenograft model; parameters: species or system female nude mice; conditions: qdx5 for two weeks
Procedure: Animals were dosed daily from Monday to Friday for two weeks.
Female nude mice (NU/NU, strain code 088, 6 weeks old, Charles River Laboratory) were implanted subcutaneously with 5×10^6 A2780 cancer cells per mouse. On day 13 when the tumors were approximately 150 mm^3, treatment started as described in Table 9.
Tumor volume and regressions were followed over time. Tumor volume was calculated by (length×width^2)/2. Note that a complete regression was defined as no measurable tumor for at least 3 consecutive measurements; while a partial regression was defined as tumor shrinkage to equal or less than 50% of original tumor volume for 3 consecutive measurements. Tumor growth delay (TGD) was defined as the median number of days for the control and treatment groups to grow to 342.14 mm^3. The average tumor volume on the first day of treatment (day 13) is 171.07 mm^3.

cytidine deaminase (CDA) = cytidine deaminase (CDA) (Homo sapiens (Human), UniProt P32320); assay: Effect of ER-876437 on the half-life of gemcitabine in the presence of CDA in Tris-HCl buffer at 37° C.; format: biochemical; parameters: half-life: dose or concentration left out as unconfirmed; conditions: for half-life: cytidine deaminase (CDA) in Tris-HCl buffer, read-out: Estimated T1/2 of gemcitabine; for reduction in gemcitabine concentration: gemcitabine alone, absence of CDA, Tris-HCl buffer at 37° C., 10 hours
Procedure: This Example employed a Phenomenex Luna C18(2) HPLC column (100 Å 4.6×250 mm 5 μm). The solvent delivery system employed an HPLC quaternary pump, low pressure mixing. An autosampler having a variable loop, 0.1 to 100 μL range and temperature controlled thermostat was used. The UV detector can employ a dual wavelength detector, a diode array detector, a variable wavelength detector or equivalent, and can be recorded using chromatographic software (e.g., Waters Empower 2 Build 2154, Agilent ChemStation software version A.09.03 or higher for HPLC or equivalent). The analytical balance employed was capable of weighing ±0.1 mg. Degassed HPLC grade water and degassed HPLC grade acetonitrile were used as solvents for the mobile phases.
Gemcitabine Standard Control: 0.2 mM gemcitabine control was prepared by weighing […] of gemcitabine in a 10 mL volumetric flask. […] Solution was labeled as gemcitabine stock solution.

CDA = CDA (Homo sapiens (Human), UniProt P32320); conditions: deamination by CDA; Chabot et al. 1983, Bouffard et al. 1993; cited from earlier work
CDA from human liver = CDA from human liver (Homo sapiens (Human), UniProt P32320); conditions: Wentworth and Wolfenden 1975; cited from earlier work
Chain of CDA from human liver (P32320 whole entry): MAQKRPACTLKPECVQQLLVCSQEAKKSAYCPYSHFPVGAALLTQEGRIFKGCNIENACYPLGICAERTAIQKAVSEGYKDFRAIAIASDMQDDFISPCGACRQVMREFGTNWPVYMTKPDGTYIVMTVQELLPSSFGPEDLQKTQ

Chain of cytidine deaminase (CDA) (P32320 whole entry): as above
Chain of CDA (P32320 whole entry): as above

Row | SMILES | regressions or tumor free survivors at day 41 ([1]; gemcitabine 1 mg/kg PO alone or ER-876437 10 mg/kg PO alone) | effect on tumor growth (FIG. 3) ([1]; gemcitabine 1 mg/kg PO and/or ER-876437 10 mg/kg PO (30 minutes prior)) | TGD (tumor growth delay) ([1]; gemcitabine 1 mg/kg PO and/or ER-876437 10 mg/kg PO (30 minutes prior), delay vs vehicle to reach 342.14 mm^3) [days] | Estimated T1/2 of gemcitabine (cytidine deaminase (CDA); Gemcitabine with CDA in Tris-HCl buffer at 37° C.) [min] | half-life (cytidine deaminase (CDA); pH 7.4, Gemcitabine with CDA and ER-876437 in Tris-HCl buffer at 37° C.) [min] | half-life (cytidine deaminase (CDA); pH 7.4, Gemcitabine with CDA in Tris-HCl buffer at 37° C.) [min] | reduction in gemcitabine concentration (cytidine deaminase (CDA)) | reduction in gemcitabine concentration (cytidine deaminase (CDA); listed as Gemcitabine) | concentration of gemcitabine (cytidine deaminase (CDA); presence of CDA, within 1 hour) [% control] | Km (CDA) [µM] | Km (CDA from human liver) [mM]
1 | Nc1ccn([C@@H]2O[C@H](CO)[C@@H](O)C2(F)F)c(=O)n1 [gemcitabine, 2′-deoxy-2′,2′-difluorocytidine] | no regressions or tumor free survivors | limited efficacy | 2 | <35 | > 780 | < 35 | no reduction | did not show any degradation | ~0 | 95.7 ± 8.4 | 
2 | Nc1ncn([C@@H]2O[C@H](CO)[C@@H](O)[C@H]2O)c(=O)n1 [5-azacytidine, 4-Amino-1-(β-D-ribofuranosyl)-1,3,5-triazin-2(1H)-one] |  |  |  |  |  |  |  |  |  | 216 ± 51 | 0.058
3 | Nc1cnn([C@@H]2O[C@H](CO)[C@@H](O)[C@H]2O)c(=O)n1 [6-azacytidine] |  |  |  |  |  |  |  |  |  |  | 4.2
